In patent US11975050B2, “Parathyroid hormone polypeptide conjugates and methods of their use” (The General Hospital Corporation, priority 2018, dated 2024):
Read-outs that look alike come from different tables or passages of the source. Starred links: 1 amine or outer side, 2 acyl side, 3 side chain; linkers in the order of their positions; H or OH if unused. Non-standard residues stand in square brackets, D forms with d. Primed or numbered codes have the meaning given here. No end group written: not given here. K(Palm) = CCCCCCCCCCCCCCCC(=O)NCCCC[C@H](N[*:1])C(=O)[*:2]; PEG2′ = short PEG2 spacer in the linker

How the values were obtained:
[1] = in vivo; conditions: mouse, sc
Procedure: (§1) Mice were injected IV via the tail vein or subcutaneously with ligands in vehicle (0.05% Tween 80; 10 mM citrate; 150 mM NaCl; pH 5.0) to give the intended final ligand dose (e.g. 50 nmol/kg body weight). At times immediately before (t=0) and after injection, tail vein blood was collected and analyzed for concentrations of administered peptides or blood ionized calcium (Ca^2+) measured with a RAPIDLAB 348 analyzer (SIEMENS Healthcare Diagnostic, United Kingdom).

[2] = mouse, in vivo, sc
Procedure: as §1

[3] = molecular target: T1, PTH receptor (Homo sapiens, UniProt Q03431); experiment: cAMP signaling in SaOS2/glosensor (SGS-72) cells; format: cell-based; conditions: for Max %: maximum cAMP response relative to PTH(1-34)-2009
T1 construct: endogenous in cells; host or cells: SaOS2-derived SGS-72 cells (human osteoblast line stably transfected with the GloSensor cAMP reporter)
T1 sequence (Q03431 27-593): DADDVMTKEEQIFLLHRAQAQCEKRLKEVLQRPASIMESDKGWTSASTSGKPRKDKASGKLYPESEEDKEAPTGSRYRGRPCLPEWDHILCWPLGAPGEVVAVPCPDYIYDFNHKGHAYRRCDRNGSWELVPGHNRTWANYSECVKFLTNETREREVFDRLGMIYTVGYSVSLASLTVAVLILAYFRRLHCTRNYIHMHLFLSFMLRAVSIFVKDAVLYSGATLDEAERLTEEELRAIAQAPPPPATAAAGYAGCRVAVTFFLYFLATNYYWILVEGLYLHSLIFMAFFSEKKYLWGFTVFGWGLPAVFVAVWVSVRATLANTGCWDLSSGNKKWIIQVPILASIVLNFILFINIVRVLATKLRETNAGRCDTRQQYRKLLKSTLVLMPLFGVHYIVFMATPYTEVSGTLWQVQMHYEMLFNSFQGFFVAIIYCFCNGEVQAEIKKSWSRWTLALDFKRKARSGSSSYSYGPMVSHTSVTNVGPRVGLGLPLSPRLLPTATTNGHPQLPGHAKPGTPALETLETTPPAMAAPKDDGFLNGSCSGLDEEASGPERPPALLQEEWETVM
Procedure: The cells are derived from the human osteoblast cell line, SaOS2 by stable transfection with a glosensor cAMP reporter.
cAMP signaling was assessed in an SaOS2-derived cell line stably expressing the luciferase-based GloSensor™ cAMP reporter (Hattersley et al., Paper presented at: Novel Signaling Mechanisms and Bone Cell Biology 2014; Binkowski et al., Methods in Molecular Biology 756:263-271, 2011). The cells were seeded into 96-well white plates and were assayed 24 to 48 hours post-confluency. Assays were performed at room temperature in CO2-independent culture media (Life Technologies, Corp., Carlsbad, CA) containing 0.1% BSA (CIDB). […] The time at which maximum luminescence (cps) observed with agonist alone, typically at 10-20 minutes after agonist addition, was used to obtain data from wells containing antagonist with or without agonist, to thus generate antagonist ligand dose-response curves. The resulting cps values were then plotted against ligand concentration using GraphPad Prism 7.0 software and a four-parameter logistics curve fitting equation, which yielded parameters of inhibitory potency (pIC50).

[4] = Blood ionized calcium in mice after injection; format: in vivo; conditions: single dose 10 nmol/kg i.v.
Excerpt: Data are means±SEM; n=6 mice per group.
In Vivo Testing of the Polypeptides Wild-type, ca. 10-week old male C57BL/6J mice were purchased from the Charles River Laboratories (Wilmington, Massachusetts, USA). The origin and method of breeding of Col1-H223R “Jansen's” transgenic mice is described by Calvi et al. (J. Clin. Invest. 107:277-286, 2001). Mice were maintained in facilities operated by the Center for Comparative Research of the Massachusetts General Hospital, and acclimated in the facilities for seven days prior to being used for study. All experimental procedures were approved by the MGH Institutional Animal Care and Use Committee (IACUC). In each study, animals were assigned randomly to treatment groups. Where possible, power calculations established that the number of animals used per study group was sufficient to detect statistically significant differences in intended primary experimental outcomes (i.e., changes in serum Ca and Pi).

[5] = Pharmacokinetic properties in mice, hPTH(1-34) ELISA of plasma
Procedure: as §1

[6] = Hypophosphatemic effect (total inorganic phosphorus) in mice; format: in vivo; conditions: as compared to PTH(1-34)
Excerpt: Tail vein blood and spot urine were collected just prior to injection (t=0) and at the indicated times after injection.
Peptide doses for FIGS. 4A and 4B were 10 nmol/kg, while peptide doses were 50 nmol/kg for FIGS. 4C and 4D. T-test vs. vehicle: *p<0.05; PTH vs. Palm: +p<0.05. Mice were CD1 females, age 10 weeks. Data are means±SEM, n=6.

Molecule: CC[C@H](C)[C@H](NC(=O)[C@H](CCC(=O)O)NC(=O)[C@H](CO)NC(=O)[C@@H](NC(=O)[C@@H](N)CO)C(C)C)C(=O)N[C@@H](CCC(N)=O)C(=O)N[C@@H](CC(C)C)C(=O)N[C@@H](CCSC)C(=O)N[C@@H](Cc1cnc[nH]1)C(=O)N[C@@H](CC(N)=O)C(=O)N[C@@H](CC(C)C)C(=O)NCC(=O)N[C@@H](CCCCN)C(=O)N[C@@H](Cc1cnc[nH]1)C(=O)N[C@@H](CC(C)C)C(=O)N[C@@H](CC(N)=O)C(=O)N[C@@H](CO)C(=O)N[C@@H](CCSC)C(=O)N[C@@H](CCC(=O)O)C(=O)N[C@@H](CCCNC(=N)N)C(=O)N[C@H](C(=O)N[C@@H](CCC(=O)O)C(=O)N[C@@H](Cc1c[nH]c2ccccc12)C(=O)N[C@@H](CC(C)C)C(=O)N[C@@H](CCCNC(=N)N)C(=O)N[C@@H](CCCCN)C(=O)N[C@@H](CCCCN)C(=O)N[C@@H](CC(C)C)C(=O)N[C@@H](CCC(N)=O)C(=O)N[C@@H](CC(=O)O)C(=O)N[C@H](C(=O)N[C@@H](Cc1cnc[nH]1)C(=O)N[C@@H](CC(N)=O)C(=O)N[C@@H](Cc1ccccc1)C(N)=O)C(C)C)C(C)C [PTH(1-34)-2009, PTH(1-34)]
- half-life [1]: 12 min
- AUC ([1]; 10 nmol/kg): 0.00043 µM·h
- half-life ([1]; 10 nmol/kg): 12 min
- total area-under-the-curve [2]: 0.00043 µM·h
- Max % ([3]; means ± SEM): 100 ± 0%
- duration of increase of blood Ca2+ levels [4]: ≤ 4 h
- Cmax ([5]; mouse, plasma, sc, 10 nmol/kg): 0.65 nM

Molecule: CCCCCCCCCCCCCCCC(=O)NCCCC[C@H](NC(=O)[C@H](CCC(=O)O)NC(=O)[C@H](Cc1ccc(O)cc1)NC(=O)[C@H](CCC(=O)O)NC(=O)COCCOCCNC(=O)[C@H](Cc1ccccc1)NC(=O)[C@H](CC(N)=O)NC(=O)[C@H](Cc1c[nH]cn1)NC(=O)[C@@H](NC(=O)[C@H](CC(=O)O)NC(=O)[C@H](CCC(N)=O)NC(=O)[C@H](CC(C)C)NC(=O)[C@H](CCCCN)NC(=O)[C@H](CCCCN)NC(=O)[C@H](CCCNC(=N)N)NC(=O)[C@H](CC(C)C)NC(=O)[C@H](Cc1c[nH]c2ccccc12)NC(=O)[C@H](CCC(=O)O)NC(=O)[C@@H](NC(=O)[C@H](CCCNC(=N)N)NC(=O)[C@H](CCC(=O)O)NC(=O)[C@H](CCSC)NC(=O)[C@H](CO)NC(=O)[C@H](CC(N)=O)NC(=O)[C@H](CC(C)C)NC(=O)[C@H](Cc1c[nH]cn1)NC(=O)[C@H](CCCCN)NC(=O)CNC(=O)[C@H](CC(C)C)NC(=O)[C@H](CC(N)=O)NC(=O)[C@H](Cc1c[nH]cn1)NC(=O)[C@H](CCSC)NC(=O)[C@H](CC(C)C)NC(=O)[C@H](CCC(N)=O)NC(=O)[C@@H](NC(=O)[C@H](CCC(=O)O)NC(=O)[C@H](CO)NC(=O)[C@@H](NC(=O)[C@@H](N)CO)C(C)C)[C@@H](C)CC)C(C)C)C(C)C)C(=O)N[C@@H](CCC(=O)O)C(=O)N[C@@H](Cc1ccc(O)cc1)C(=O)N[C@@H](CCC(=O)O)C(N)=O [Palm-PTH(1-34)-2027, Palm-PTH(1-34)]
- duration of increase of blood Ca2+ levels [4]: at least 24 hours
- total area-under-the-curve ([5]; mice, single injection 10 mnol/kg s.c.): 0.116 µM·h
- AUC ([5]; mouse, plasma, sc, 10 nmol/kg): 0.116 µM·h
- Cmax ([5]; mouse, plasma, sc, 10 nmol/kg): 28.1 nM
- Tmax ([5]; mouse, plasma, sc, 10 nmol/kg): 60 min
- half-life ([5]; mouse, plasma, sc, 10 nmol/kg): 114 min
- hypophosphatemic effects [6]: prolonged hypophosphatemic effects

Molecule: W1-Palm-PTH(1-34) (WVSEIQLMHNLGKHLNSMERVEWLRKKLQDVHNF[PEG2′]EYE-{K(Palm)-Glu-Tyr-Glu-NH2}) [Trp1-Palm-PTH(1-34)-2029]
- pEC50 (log molar concentration to attain 50% of maximum response observed with PTH(1-34)-2009) ([3]; SaOS2/glosensor (SGS-72) cells, means ± SEM, n = 5): 8.72 ± 0.15
- EC50 ([3]; SaOS2/glosensor (SGS-72) cells, read-out: EC50, concentration in nM shown below pEC50 (converted)): 1.91 nM
- Max % ([3]; means ± SEM): 77 ± 8%
